Measurements: PubChem BioAssay (NCI)
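GI50 = concentration required for 50% inhibition of growth. TGI: total growth inhibition.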

Key:
Experiment in all cases: growth of human tumour cells (NCI), 384-well format
[1] = system: 786-0 renal
[2] = system: A498 renal
[3] = system: A549 NSCLC
[4] = system: ACHN renal
[5] = system: BT-549 breast
[6] = system: CAKI-1 renal
[7] = system: COLO 205 colon
[8] = system: DU-145 prostate
[9] = system: EKVX NSCLC
[10] = system: HCT-15 colon
[11] = system: HL-60(TB) leukemia
[12] = system: HOP-62 NSCLC
[13] = system: HS 578T breast
[14] = system: HT29 colon
[15] = system: IGROV1 ovarian
[16] = system: K-562 leukemia
[17] = system: KM12 colon
[18] = system: M14 melanoma
[19] = system: MDA-MB-231 breast
[20] = system: MDA-MB-435 melanoma
[21] = system: MDA-MB-468 breast
[22] = system: MOLT-4 leukemia
[23] = system: NCI-H226 lung
[24] = system: NCI-H23 lung
[25] = system: NCI-H322M lung
[26] = system: NCI-H460 NSCLC
[27] = system: NCI-H522 lung
[28] = system: OVCAR-3 ovarian
[29] = system: OVCAR-5 ovarian
[30] = system: PC-3 prostate
[31] = system: RPMI-8226 leukemia
[32] = system: RXF 393 renal
[33] = system: SF-295 CNS
[34] = system: SF-539 CNS
[35] = system: SK-MEL-2 melanoma
[36] = system: SK-MEL-28 melanoma
[37] = system: SK-MEL-5 melanoma
[38] = system: SN12C renal
[39] = system: SNB-19 CNS
[40] = system: SNB-75 CNS
[41] = system: SR leukemia
[42] = system: SW-620 colon
[43] = system: T-47D breast
[44] = system: TK-10 renal
[45] = system: U251 glioblastoma
[46] = system: UACC-257 melanoma
[47] = system: UO-31 renal

COc1cc2c(Nc3cc(Cl)c(OC)c(Cl)c3)c(C#N)cnc2cc1OCCCN1CCN(C)CC1
GI50 [1]: 0.672 µM | TGI [1]: 1.99 µM | GI50 [2]: 0.257 µM | TGI [2]: 1.4 µM | GI50 [3]: 1.1 µM | TGI [3]: 2.37 µM | GI50 [4]: 0.257 µM | TGI [4]: 1.5 µM | GI50 [5]: 0.785 µM | TGI [5]: 2.08 µM | GI50 [6]: 0.18 µM | TGI [6]: 1.34 µM | GI50 [7]: 0.765 µM | TGI [7]: 2.05 µM | GI50 [8]: 0.843 µM | TGI [8]: 2.29 µM | GI50 [9]: 0.404 µM | TGI [9]: 1.74 µM | GI50 [10]: 0.878 µM | TGI [10]: 2.17 µM | GI50 [11]: 0.795 µM | TGI [11]: 2.06 µM | GI50 [12]: 1.09 µM | TGI [12]: 2.44 µM | GI50 [13]: 0.456 µM | TGI [13]: 1.35 µM | GI50 [14]: 1.63 µM | TGI [14]: 4.36 µM | GI50 [15]: 0.145 µM | TGI [15]: 1.03 µM | GI50 [16]: 0.166 µM | TGI [16]: 0.33 µM | GI50 [17]: 0.412 µM | TGI [17]: 1.58 µM | GI50 [18]: 0.191 µM | TGI [18]: 0.633 µM | GI50 [19]: 1.36 µM | TGI [19]: 2.92 µM | GI50 [20]: 0.256 µM | TGI [20]: 0.925 µM | GI50 [21]: 0.288 µM | TGI [21]: 0.618 µM | GI50 [22]: 0.163 µM | TGI [22]: 0.313 µM | GI50 [23]: 1.28 µM | TGI [23]: 2.96 µM | GI50 [24]: 0.401 µM | TGI [24]: 1.48 µM | GI50 [25]: 0.234 µM | TGI [25]: 1.11 µM | GI50 [26]: 1.02 µM | TGI [26]: 2.23 µM | GI50 [27]: 0.0477 µM | TGI [27]: 0.234 µM | GI50 [28]: 0.323 µM | TGI [28]: 1.28 µM | GI50 [29]: 1.2 µM | TGI [29]: 2.7 µM | GI50 [30]: 1.32 µM | TGI [30]: 2.88 µM | GI50 [31]: 0.184 µM | TGI [31]: 0.366 µM | GI50 [32]: 0.221 µM | TGI [32]: 0.677 µM | GI50 [33]: 0.909 µM | TGI [33]: 2.15 µM | GI50 [34]: 0.222 µM | TGI [34]: 0.484 µM | GI50 [35]: 0.456 µM | TGI [35]: 1.35 µM | GI50 [36]: 1.44 µM | TGI [36]: 2.8 µM | GI50 [37]: 0.464 µM | TGI [37]: 1.55 µM | GI50 [38]: 0.321 µM | TGI [38]: 1.43 µM | GI50 [39]: 1.71 µM | TGI [39]: 3.63 µM | GI50 [40]: 1.27 µM | TGI [40]: 2.54 µM | GI50 [41]: 0.195 µM | TGI [41]: 0.377 µM | GI50 [42]: 1.22 µM | TGI [42]: 2.52 µM | GI50 [43]: 1.33 µM | TGI [43]: 2.63 µM | GI50 [44]: 0.381 µM | TGI [44]: 1.62 µM | GI50 [45]: 1.24 µM | TGI [45]: 2.51 µM | GI50 [46]: 0.538 µM | TGI [46]: 1.64 µM | GI50 [47]: 0.605 µM | TGI [47]: 1.85 µM
